Values joined by “and” are separate entries in the source; they are usually repeats but may differ in a detail not shown here. Identical values can stand only once.
Columns and labels:
[1] = molecular target: T1, active human CypA protein (Homo sapiens, UniProt P62937); experiment: Binding to immobilized CypA by surface plasmon resonance (SPR); conditions: for immunosuppressive activity (SAR profile, FIG. 2): in words, CypA binding / IL-2 inhibition
T1 construct: Active human CypA full-length protein was from Abcam; purchased Abcam
T1 sequence (P62937 whole entry): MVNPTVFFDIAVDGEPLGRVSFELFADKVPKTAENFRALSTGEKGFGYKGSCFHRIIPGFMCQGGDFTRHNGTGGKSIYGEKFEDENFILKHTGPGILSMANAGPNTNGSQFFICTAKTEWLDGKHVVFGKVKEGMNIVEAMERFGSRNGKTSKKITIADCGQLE
Description: Sensor surface activation and ligand immobilization were performed by using HBS-EP as running buffer at a flow rate of 5 μL/min and 25° C. CM5 sensor chips were used as surface where Cyp A or D was immobilized as ligand. The CM5 chip is a glass slide coated with a thin layer of gold with a matrix of carboxymethylated dextran covalently attached. The CM5 chip was activated using an amine coupling kit. […] After activation, the ligand, 100 μg/mL of active human CypA protein dissolved in sodium acetate 10 mM at pH 4.5 was added to be immobilized over a CM5 sensor chip. Finally ethanolamine-HCl was injected to deactivate the remaining active esters and to avoid non-specific binding. […] Once analytes were tested and interaction was observed, individual binding curves were analyzed by determining the kinetic constants of analytes-CypA binding, namely, the observed rate constant (Kobs), the association rate constant (Kass), the dissociation rate constant (Kdiss), and the kinetic equilibrium dissociation constant (KD). At equilibrium, by definition, […]. The pseudo-first order association rate constants Kobs (s^-1) were determined for each compound concentration by using the 1:1 Langmuir association model of BiaEvaluation software (BiaCore, Uppsala, Sweden). Then a representation of Kobs against the corresponding concentration of each compound was done. […] From the equation of these representations, Kass, M^-1 s^-1, gradient of the plot, and […]^-1, intercept of the plot was obtained. Within these two values, the kinetic equilibrium dissociation constant KD for each analyte-CypA binding was obtained. The duration of the sample injection was 2 min at 10 μL/min flow rate. Next, dissociation of bound molecules in HBS-EP buffer flow was studied. The bound drugs were removed from the chip surface before the next injection by adding 1 M Glycine-HCl at pH 2.5 for 1 min. The association phase was used to quantify the compound-CypA or D interactions. All experiments were performed four times.

SH-SY5Y cells = experiment: Intracellular ROS levels (carboxy-H2DCFDA) after H2O2; assay type: cell-based, human; conditions: 150 μM H2O2 co-treatment 6 h
Description: Intracellular levels of reactive oxygen species (ROS) were determined with carboxy-H2DCFDA (5-(and-6)-carboxy-2′,7′-dichlorodihydrofluorescein diacetate). This dye diffuses through the cellular membrane and is converted by cellular esterases to carboxy-H2DCFH (non-fluorescent). When carboxy-H2DCFH is oxidized by ROS, it becomes fluorescent (Halliwell, B. and Whiteman, M. Br. J. Pharmacol., 2004, 142, 231-255). Cells were seeded at a density of 2.5×10^5 cells/mL in 96-well plates and allowed to attach for 24 h. Following treatment with compounds at various concentrations (1 μM→1 nM) and 150 μM H2O2 for 6 h, SH-SY5Y cells were washed twice with serum-free culture medium. Then, carboxy-H2DCFDA 20 μM dissolved in serum-free culture medium was added to each well and the cells were incubated for 1 h at 37° C. After this incubation, the medium with the fluorescent dye was replaced with PBS and the plate was incubated for 30 min at 37° C. Fluorescence was read at 527 nm, with an excitation wavelength of 495 nm. All experiments were performed four times.

CypA = molecular target: T2, CypA (Homo sapiens, UniProt P62937); experiment: CypA PPIase activity inhibition; assay type: biochemical; conditions: PPIase IC50 CypA vs CypD
T2 construct: Active human CypA full-length protein was from Abcam; purchased Abcam
T2 sequence (P62937 whole entry): as above

[2] = Viability of human T lymphocytes (MTT assay, 48 h); assay type: cell-based; conditions: human; 0.1 μM, 48 hours; read-out: decrease in cell viability
Excerpt: (§1) The MTT (3-[4,5-dimethylthiazol-2-yl]-2,5-diphenyltetrazoliumbromide) assay was used to determine the cytotoxicity of gracilin derivatives in T lymphocytes (Burton, J. D. Methods Mol. Med., 2005, 110, 69-78) and SH-SY5Y cells and the protective effect of these compounds against H2O2 insult in neuroblastoma cells as previously described (Leiros, M., Alonso, E., Sanchez, J. A., Rateb, M. E., Ebel, R., Houssen, W. E., Jaspars, M., Alfonso, A. and Botana, L. M. ACS Chem. Neurosci., 2014, S, 71-80). Human T lymphocytes were cultured in 24 well plates at the concentration of 2.5×10^6 cells/mL and exposed to different compound concentrations (0.01, 0.1, 1 and 10 μM) added to the culture medium. Human T cells were maintained in the presence of the pure compound at 37° C. in humidified 5% CO2/95% air atmosphere for 48 h.
(§2) Saponin was used as cellular death control and its absorbance was subtracted from the other data. After the incubation period with compounds, assay was performed. First cells were centrifuged (1500 rpm, 5 min, 4° C.). The pellets were resuspended in saline solution with MTT (250 μg/mL) and then incubated at 37° C. during 30 min. After washing off excess MTT twice with saline solution, cells were disaggregated with H2O and sonicated for 1 min and the absorbance of the colored formazan salt was measured at 595 nm in a spectrophotometer plate reader. All experiments were performed three times.

human T lymphocytes = experiment: Viability of human T lymphocytes (MTT assay, 48 h); assay type: cell-based; conditions: in words
Excerpt: as §1, §2

CC(=O)O[C@@H]1OC[C@H]2C=C(C3(C)CCCCC3)CC[C@@H]12 [Compound 27a, (1S,3aS,7aR)-5-(1-methylcyclohexyl)-1,3,3a,6,7,7a-hexahydroisobenzofuran-1-yl acetate]
immunosuppressive activity (SAR profile, FIG. 2) [1]: inactive | ROS levels (SH-SY5Y cells): diminishing ROS at two or three concentrations

CC(=O)O[C@H]1O[C@@H](OC(C)=O)[C@@H]2CC[C@](O)(C3(C)CCCC(C)(C)C3)C[C@H]12 (stereo partly drawn) [Compound 22, (1S,3R,3aS,5R,7aR)-5-hydroxy-5-(1,3,3-trimethylcyclohexyl)octahydroisobenzo-furan-1,3-diyl diacetate]
immunosuppressive activity (SAR profile, FIG. 2) [1]: inactive | ROS levels (SH-SY5Y cells): diminishing ROS at two or three concentrations | selectivity for CypA (CypA): 4 fold

CC(=O)O[C@H]1OC[C@@H]2C=C([C@@]3(C)CCCC(C)(C)C3)CC[C@H]12 [Compound 29a, (1R,3aR,7aS)-5-(1,3,3-trimethylcyclohexyl)-1,3,3a,6,7,7a-hexahydroisobenzofuran-1-yl acetate]
Kd ([1]; SPR, immobilized CypA): ~3 µM and 2.8 to 6.8 µM | cytotoxicity at 48 h, 0.1 μM [2]: 15 to 25% | impact on T-cell viability (human T lymphocytes): relatively non-toxic

— patent US11066379B2 (THE TEXAS A&M UNIVERSITY SYSTEM, priority 2018, dated 2021)
